Assay: Human HepG2 cell viability assay in 384 well format
Format: toxicity, cell-based
Design: dose 125 nL, time 70.5 hour; concentration not given beside the values
Conditions: HepG2 cells, read-out: Inhibition

SMILES | cytotoxicity at 70.5 h
CC(C)O[C@@H]1CC[C@H]2[C@H]1OCCN2C(=O)c1nn(C)c2ccccc12 | 1.07%
CCS(=O)(=O)N1C[C@H]2CN(CC3CC3)C(=O)[C@H]2C1 | -0.251%
O=C1[C@H]2CN(S(=O)(=O)C3CC3)C[C@H]2CN1CC1CC1 | 0.281%
CC(C)NC(=O)C1CN(C(=O)c2ccco2)CC12CCOCC2 (stereo unspecified) | -6.64%
Cc1occc1C(=O)N1CC[C@@H](N2CCOCC2)[C@@H]1Cc1ccccc1 | -7.85%
O=C1NC2(CCN(Cc3cccnc3)CC2)CC1c1ccncc1 (stereo unspecified) | -10.6%
CCOCC1CC2(CCN(C(=O)c3ccccc3F)CC2)CO1 (stereo unspecified) | 0.964%
O=C(NCC1CC1)C1=NOC2(CCN(S(=O)(=O)c3cccs3)C2)C1 (stereo unspecified) | -10%
CCOCC1CC2(CCN(Cc3ccccn3)CC2)CO1 (stereo unspecified) | -3.81%
Cc1noc(C)c1C(=O)N1CC[C@H]2C[C@@H](c3nccs3)O[C@@H]2C1 | -13.5%
CC(C)c1nccc([C@H]2C[C@@H]3CCN(Cc4ccoc4)C[C@H]3O2)n1 | -4.74%
COC[C@@H]1CC[C@H]2[C@H](CCN2S(=O)(=O)c2ccc(F)cc2)O1 | -28.6%
CS(=O)(=O)N1CCC(c2nnc3ccc(C(=O)N4CCCC4)cn23)C1 (stereo unspecified) | -5.09%
CS(=O)(=O)N1CCC2(CC1)CC(CC(=O)N1CCCC1)c1ccccc12 (stereo unspecified) | -10.4%
Fc1cnc(N2CCOCC3(CCCN(c4nncs4)C3)C2)nc1 (stereo unspecified) | -19.9%
COCC(=O)N1CCC2(CC1)CC(CC(=O)NC1CC1)c1ccccc12 (stereo unspecified) | -18.5%
COC[C@@H]1CC[C@H]2[C@H](CCN2S(=O)(=O)c2ccc(OC)cc2)O1 | -6.4%
CCN(C)c1ncnc2c1CCN(Cc1ccoc1)CC2 | -20.5%
Cc1ccc(C(=O)N2C[C@@H](OCC3CCOCC3)[C@H]3OCCC[C@H]32)o1 | -27.2%
Cn1cc(-c2nnn3c2COC(CNCc2nccs2)C3)cn1 (stereo unspecified) | -25.2%
CN(C)c1nccc(-c2c[nH][nH]c2=O)n1 | -1.59%
CC(C)Nc1nc2c(s1)C(=O)CN(C)C2 | 4.07%

SMILES | cytotoxicity at 70.5 h
CNCC[C@H]1CC(C)(C)Oc2ccc(C)cc21 | -2.65%
CNCC[C@H]1CC(C)(C)Oc2ccc(OC)cc21 | -0.183%
CN(C)c1nccc(-c2cnc(N(C)C)[nH]c2=O)n1 | -5.37%
CC(=O)N1CCC(n2nccc2-c2cnc(N)nc2)CC1 | -6.3%
Nc1ncc(-c2ccc(NC(=O)[C@@H]3CCCCN3)cc2)cn1 | 2.01%
CC[C@H](C)Nc1nccc(-c2cnc3sccn3c2=O)n1 | -4.72%
CC(C)NC(=O)NCc1cc(-c2cccc(Cl)c2)nn1C | 7.95%
C[C@H](NS(C)(=O)=O)C(=O)NCc1cc(-c2ccco2)n[nH]1 | -12.9%
Cc1ncc(-c2ccnc(SCCN)n2)c(-c2ccco2)n1 | 21.8%
OC1(CNCCSc2ccccn2)CCCNC1 (stereo unspecified) | -6.54%
CCC(C(=O)NCC1=CCN(C)CC1)c1ccccc1 (stereo unspecified) | 30%
Cc1csc(CN2C[C@H](NC(=O)C3CCOCC3)[C@@H](C(C)C)C2)n1 | -10.9%
COc1cc(CN2CCC3(CC2)[C@H](O)C[C@@H]3OCCO)ccc1F | -8.63%
CC(c1ccccn1)N(C)Cc1ccc(-n2ccnc2)cc1 (stereo unspecified) | 1.45%
CNc1ncc(C(=O)N[C@H]2CN(CCCSC)C[C@@H]2C2CC2)cn1 | -5.85%
Cc1ccc(-c2cnnc(N3CCCC3c3nccs3)n2)o1 (stereo unspecified) | -7.57%
N[C@@H]1CC[C@@H](Nc2nccc(CCC(F)(F)F)n2)C1 | -6.78%
CC(C)c1nnsc1CNC(=O)C1CCN(C(C)C)CC1 | 1.46%
O=C(CN1C[C@H]2CC[C@@H]1CN(Cc1ccccn1)C2)Nc1ccccc1 | -6.28%
COc1ccccc1CCC(=O)N1CCCC(OCc2cccnc2)C1 (stereo unspecified) | 26.8%
NC(=O)c1cnc2n1CCN(C(=O)c1ccc(Cn3cccc3)cc1)C2 | 5.38%
CCc1cc(CN(C)C(=O)c2cnc3c(c2)nc(N)n3CC)on1 | -2.5%

SMILES | cytotoxicity at 70.5 h
CCn1cc(-c2n[nH]c(=O)n2-c2ccc3c(c2)OCO3)c(C)n1 | -4.59%
CN(C)CCN(C)C[C@@H]1CN(Cc2cccc(O)c2)C[C@@H]1CO | -3.65%
O=C1CC(NCc2ccc(Cl)s2)CN1Cc1cccc(F)c1 (stereo unspecified) | -7.49%
CCc1cc(NCCS(=O)(=O)N(C)C)nc(N2CCOCC2)n1 | -13.2%
CCC(OC)C(=O)NCC1CCN(c2cnn(C)c(=O)c2)CC1 (stereo unspecified) | -3.42%
OCC1(O)CCCN(Cc2noc(-c3ccccc3)n2)C1 (stereo unspecified) | -10.2%
CCOCCn1nc(C)cc1C(=O)N1CC[C@](O)(CC)[C@H](O)C1 | 3.37%
CCCC(C)NC1CCN(c2ccc(-n3ccnc3C)cc2)CC1 (stereo unspecified) | -2.41%
CCN1CCC(CNC(=O)C(c2ccc(F)cc2)N(C)C)(N(C)C)CC1 (stereo unspecified) | -6.97%
CCN(CC)CCC(=O)NCc1cc2n(n1)CCN(C(=O)N(C)C)C2 | -11.8%
CCC[C@H]1CN(C2CCOCC2)C[C@@H]1NC(=O)CCc1cnccn1 | 6.02%
CO[C@H]1CN(C(C)C)C[C@@H]1NC(=O)Nc1ccc2oc(C)cc2c1 | 26.1%
O=C(c1ccnc(CC2COc3ccccc3C2)c1)N1CCCC1 (stereo unspecified) | -23.5%
CCN1CCCC(CN2CCn3nc(CNC(=O)N(C)C)cc3C2)C1 (stereo unspecified) | -8.51%
CN1CC2(CCCN(C(=O)c3cnc4ccc(F)cc4c3O)C2)OC1=O (stereo unspecified) | -6.43%
Cc1nccn1-c1ccc(NC(=O)C2CCCN2CC2CC2)cc1 (stereo unspecified) | -1.14%
Cc1c(NC(=O)N(C)CCCc2cnn(C)c2)cnn1C | -12.2%
CN1CCCN(C[C@@H]2CN(c3nc(C(N)=O)cs3)C[C@@H]2CO)CC1 | 4.88%
Cc1cc(N2CCCN(c3nc(C)nc(C)c3C)CC2)ccn1 | -11%
CS(=O)(=O)N1CCC[C@H]1c1ncnn1-c1ccc2c(c1)OCO2 | -1.95%
CCCc1ccc(C(=O)N2CCc3c(nc(N(C)C)[nH]c3=O)C2)cc1 | -5.16%
Cn1ccnc1CN1CCC(Cn2cc(-c3ccccc3)nn2)CC1 | 3.07%

SMILES | cytotoxicity at 70.5 h
COc1nccnc1N1CCC2(CC1)[C@H](O)C[C@@H]2OCCN(C)C | -7.06%
CSc1nccc(N2CCCC(c3nccn3C(C)C)C2)n1 (stereo unspecified) | 17.1%
CSCC(=O)N[C@H]1CN(Cc2c(C)noc2C)C[C@@H]1C(C)C | -0.898%
CCc1cc(NC2CCS(=O)(=O)CC2)nc(N2CCCCC2)n1 | 22.5%
O=C(NCC(F)(F)F)C1=NOC2(CCCNC2)C1 (stereo unspecified) | 0.364%
CC(C)(CO)Nc1cc(-c2cn[nH]c2)ncn1 | -2.91%
CC(C)NC(=O)[C@@]12CCO[C@@H]1CCN(Cc1ccc3c(c1)OCO3)C2 | 1.85%
O=C(NC1CC1)[C@@]12CCO[C@@H]1CCN(Cc1ccc3c(c1)OCO3)C2 | 2.54%
O=C1CCCN1Cc1nnc2n1CCN(Cc1ccco1)CC2 | -1.59%
O=C(c1cscn1)N1CC[C@@H]2[C@@H]1CCN2CC1CCOCC1 | -1.87%
CC(C)CCN1C[C@H]2C[C@H](C(=O)N3CCCC3)[C@@H](C1)O2 | -5.2%
c1cnc(NCc2nnn3c2CN(CC2CC2)CCC3)nc1 | -4.25%
CCOC1COC2(CCN(c3ccccn3)CC2)C1 (stereo unspecified) | -0.266%
CN(C)S(=O)(=O)N1CC[C@]2(C[C@H](Oc3ncccc3F)CO2)C1 | 2.84%
CN(C)S(=O)(=O)N1CC[C@]2(C[C@H](Oc3cccnc3)CO2)C1 | -5.74%
O=C1CO[C@@H]2CN(Cc3cccs3)C[C@H]2N1CC1CC1 | -9.66%
O=C(c1ccco1)N1C[C@H]2CCCN(CC3CCOCC3)[C@H]2C1 | -7.8%
Cc1nc(CN2CCO[C@@H]3CN(C(=O)NC(C)C)CC[C@@H]3C2)cs1 | -6.02%
COc1ccc(CN2CCC[C@@H]3CN(C(=O)c4ccco4)C[C@@H]32)cc1 | -10.9%
Cc1ccc(C(=O)N2CCC3(CC2)COC(COc2ccccn2)C3)o1 (stereo unspecified) | -4.24%
COCC(=O)N1CCC2(CC1)CCN(Cc1ccccn1)C2=O | -0.554%
c1cncc(N2CCOCC3(CCCN(c4nncs4)C3)C2)c1 (stereo unspecified) | -21.7%

SMILES | cytotoxicity at 70.5 h
CN(C)C(=O)[C@@H]1CCO[C@@H]2CCN(Cc3ccc4c(c3)OCO4)C[C@@H]21 | -21.3%
COCC1CN(Cc2ccsc2)Cc2nn(C)cc21 (stereo unspecified) | 16.3%
CN(C)C[C@H]1OC[C@@H]2CCN(S(=O)(=O)c3ccccc3)C[C@@H]21 | 22.9%
O=C(c1ncccn1)N1C[C@H]2CCC[C@@]2(COCc2cccnc2)C1 | 15.8%
CCO[C@@H]1CO[C@@]2(CCCN(S(=O)(=O)c3cccnc3)C2)C1 | -17.7%
CC(C)NC(=O)N1CCC2(C1)CN(c1ccsc1)C(=O)CN2C (stereo unspecified) | -9.03%
Cc1cccc(CN2CCO[C@@H]3CC(COc4ccccn4)C[C@H]32)n1 (stereo partly specified) | 5.17%
Cc1nc(CN2CCC3(CC2)CC(c2cccnc2)C(=O)N3C)cs1 (stereo unspecified) | -3.5%
c1ccc(CN2CCc3nnc(CN4CCCCC4)n3CC2)nc1 | 3.32%
CN(C)[C@@H]1CN(Cc2ccoc2)C[C@@H]2CCCO[C@@H]21 | -8.48%
c1csc(CN2CCOCC3(CCN(C4CCOCC4)C3)C2)n1 (stereo unspecified) | 0.591%
Cc1cccc(CN2C[C@@H]3COC[C@]3(CNC(=O)N3CCCC3)C2)n1 | 0.0201%
CN(C)CC(=O)N1CCC2(CC1)COC(COc1ccccn1)C2 (stereo unspecified) | -7.86%
Cc1cccc(C(=O)N2C[C@@H](OCc3cccnc3)[C@H]3OCCC[C@@H]32)n1 | -1.75%
O=C1NC2(CCN(Cc3nccs3)CC2)CC1c1ccncc1 (stereo unspecified) | -0.916%
Cc1cccc(N2CC[C@@H]3CN(Cc4csc(C)n4)CCO[C@@H]3C2)n1 | 2.82%
CCN(C)c1ncnc2c1CCN(Cc1ccc(OC)cc1)CC2 | -2.63%
COCC1CC2(CCN(Cc3ccc(OC)cc3)CC2)CN1C(C)C (stereo unspecified) | -13.7%

Source: ChEMBL document CHEMBL3507680, “University of Dundee, Gates Library screen for HepG2 cell viability”
